This note sets out measurements from PMC10744608, “Simplified Synthesis of Renieramycin T Derivatives to Target Cancer Stem Cells via β-Catenin Proteasomal Degradation in Human Lung Cancer” (Marine Drugs, 2023).

Assay type in all cases: cell-based, human
The subject of test [1] is H23 cells. As to the kind of experiment: MTT cell viability assay. The note with it: Homo sapiens, NCI-H23, H23, 24 h treatment. The method, then:
(§1) The cell viability was assessed using an MTT assay, determining the half-maximal inhibitory concentration (IC50) to screen right-half RT analogs (DH_18, DH_21, DH_32, DH_35, DH_38, and DH_39). Human NSCLC cells (A549, H23, and H292) were seeded in a 96-well cell culture plate at a density of 1 × 10^4 cells per well and incubated for 24 h at 37 °C. Subsequently, the culture medium was aspirated, and a complete medium with varying concentrations (0–100 μM) of right-half RT analogs was added for 24 h. Following the removal of the compound-containing medium, an MTT reagent at a concentration of 4 mg/mL was applied and incubated for 3 h at 37 °C. The MTT reagent was replaced with 100 μL of DMSO to dissolve the formazan crystals. The measurement of the formazan product was conducted at 570 nm utilizing a microplate reader. RT served as the positive control in this experiment.

The subject of test [2] is A549 cells. The experiment in a line: MTT cell viability assay. The following applies: Homo sapiens, A549, 24 h treatment. The method, then:
as §1

Test [3] has as its system H292 cells. The experiment in a line: MTT cell viability assay. The note with it: Homo sapiens, NCI-H292, H292, 24 h treatment. The method, then:
as §1

Test [4] relates to NSCLC cells (A549, H23, and H292). As to the kind of experiment: MTT cell viability assay, statements over all lung cancer lines. The note with it: summary over A549, H23 and H292, 24 h. Here is the method: as §1
The test system of test [5] is CSC spheroids of A549, H23, and H292 cells. As to the kind of experiment: 3D CSC spheroid formation with immunofluorescence. The following applies: 50 nM, 24 h, immunofluorescence. Here is the method: A three-dimensional (3D) spheroid was employed to generate the spheroids containing CSC subpopulations from lung cancer cells. For CSC-rich population establishment, the spheroid culture assay used in this study was slightly modified from a previously described method. Lung cancer cells, specifically NSCLC cells (A549, H23, and H292), were seeded onto a 24-well ultra-low attachment plate, with approximately density of 2.5 × 10^3 cells per well in a medium with a 1% FBS and Nutristem mix. The primary spheroids were allowed to form for 7 days. Every 2 days, fresh medium with 1% FBS and Nutristem mix was replenished. On day 7 of primary spheroid culture, primary spheroids were resuspended into single cells using trypsin, and again 2.5 × 10^3 cells/well were seeded into a 24-well ultra-low attachment plate. Secondary spheroids were allowed to form for 10 days. After 10 days, the secondary spheroids were treated with 50 nM concentration DH_32 for 24 h treatment. The spheroids that had undergone treatment were retrieved through centrifugation at 1000× g for 30 s and then rinsed with PBS. The spheroids were fixed with 4% paraformaldehyde in a 50 μL PBS solution for 20 min at room temperature, and then they were made permeable by treating them with 0.1% Triton X in PBS for 5 min at room temperature. The spheroids were exposed to a mixture of 5% FBS and 2% BSA in PBS for 1 h at room temperature to prevent non-specific protein interactions. Subsequently, the spheroids were incubated with primary antibodies (CD133, CD44, and OCT4) at a 1:250 dilution in a 30 μL PBS solution containing 2.5% FBS and 1% BSA, and this incubation took place overnight at 4 °C. On the subsequent day, the spheroids were rinsed with PBS and then exposed to secondary antibodies (Alexa Fluor 594-conjugated goat anti-rabbit IgG (H+L) and Alexa Fluor 488-conjugated goat anti-mouse IgG (H+L)) at a 1:500 dilution in a 30 μL PBS solution containing 2.5% FBS and 1% BSA at room temperature for 1 h 30 min. These spheroids were subjected to staining with Hoechst 33342 (Sigma, St. Louis, MO, USA) at a concentration of 10 μg/mL for a duration of 15 min at room temperature. Subsequently, the fluorescence signals were observed using a fluorescence microscope (Olympus IX 51 with DP70; Olympus America Inc., Center Valley, PA, USA). The intensity of fluorescence was quantified using Image J software. NSCLC spheroids treated with RT at 50 nM and cisplatin at 50 nM served as the positive control.

Take `COC1=C(C)C(=O)C2=C(C1=O)[C@@H]1CN(Cc3ccccn3)[C@@H](C#N)[C@H](C2)N1C` [DH_18, (1R,4R,5S)-9-methoxy-8,11-dimethyl-7,10-dioxo-3-(pyridin-2-ylmethyl)-1,2,3,4,5,6,7,10-octahydro-1,5-epiminobenzo[d]azocine-4-carbonitrile]: the half-maximal inhibitory concentration (IC50) was 28.1 ± 0.83 µM in test [1]; 28 ± 0.86 µM in test [2]; 29.5 ± 0.75 µM in test [3]; 28 to 77 µM in test [4] (Homo sapiens, 24 h); ~30 µM in test [4].

On to `COC1=C(C)C(=O)C2=C(C1=O)[C@@H]1CN(Cc3cccnc3)[C@@H](C#N)[C@H](C2)N1C` [DH_21, (1R,4R,5S)-9-methoxy-8,11-dimethyl-7,10-dioxo-3-(pyridin-3-ylmethyl)-1,2,3,4,5,6,7,10-octahydro-1,5-epiminobenzo[d]azocine-4-carbonitrile], for which the IC50 is 49.4 ± 1.01 µM in test [1]; 51.4 ± 1.5 µM in test [2]; 54.1 ± 1.15 µM in test [3]; 28 to 77 µM in test [4] (Homo sapiens, 24 h).

Turning to `C#CCN1C[C@H]2C3=C(C[C@@H]([C@@H]1C#N)N2C)C(=O)C(C)=C(OC)C3=O` [DH_35, (1R,4R,5S)-9-methoxy-8,11-dimethyl-7,10-dioxo-3-(prop-2-yn-1-yl)-1,2,3,4,5,6,7,10-octahydro-1,5-epiminobenzo[d]azocine-4-carbonitrile], the IC50 in test [1] was 56 ± 1.78 µM; in test [2], 76.3 ± 2.98 µM; in test [3], 57.7 ± 1.45 µM; in test [4] (Homo sapiens, 24 h), 28 to 77 µM.

In the case of `COC1=C(C)C(=O)C2=C(C1=O)[C@@H]1CN(CCO)[C@@H](C#N)[C@H](C2)N1C` [DH_38, (1R,4R,5S)-3-(2-hydroxyethyl)-9-methoxy-8,11-dimethyl-7,10-dioxo-1,2,3,4,5,6,7,10-octahydro-1,5-epiminobenzo[d]azocine-4-carbonitrile], the IC50 was 50.4 ± 1.18 µM in test [1]; 43.8 ± 1.43 µM in test [2]; 43.7 ± 0.86 µM in test [3]; 28 to 77 µM in test [4] (Homo sapiens, 24 h).

Take `COC1=C(C)C(=O)C2=C(C1=O)[C@@H]1CN(CCN3C(=O)c4ccccc4C3=O)[C@@H](C#N)[C@H](C2)N1C` [DH_39, (1R,4R,5S)-3-(2-{1,3-dioxoisoindolin-2-yl}ethyl)-9-methoxy-8,11-dimethyl-7,10-dioxo-1,2,3,4,5,6,7,10-octahydro-1,5-epiminobenzo[d]azocine-4-carbonitrile]: the 50% inhibitory concentration (IC50) in test [1] is 73.3 ± 1.17 µM; in test [2], 70 ± 0.85 µM; in test [3], 65.4 ± 1.13 µM; in test [4] (Homo sapiens, 24 h) it was 28 to 77 µM.

Consider `N.N.[Cl][Pt][Cl]` [cisplatin, reference compound], for which the “levels of CD133, CD44, and OCT4 in CSC spheroids” value in test [5] is listed as “could not alter CSC markers”.
